This is an account of results in patent US9839642B2, “Beta-tetrazolyl-propionic acids as metallo-beta-lactamase inhibitors” (priority 2014, dated 2017).

One assay has as its target NDM-1 (Klebsiella pneumoniae, UniProt C7C422). The experiment in a line: Enzyme activity: determination of IC50, fluorescence assay with CCF2-FA substrate. As to conditions: enzyme 1 pM, CCF2-FA 1.25 μM, 2 hours at 25° C.; read-out: NDM1 IC50. The class given is biochemical. The protocol: (§1) Enzyme Activity: Determination of IC50
(§2) The Class B enzyme activities were measured in the presence of a compound of the EXAMPLES as a test inhibitor in a fluorescence assay against a commercially available substrate consisting of a cephalosporin core linking 7-hydroxycoumarin to fluorescein (CCF2-FA; Life Technologies, Grand Island, N.Y.). The enzyme (NDM-1, IMP-1 or VIM-1) and the substrate were diluted in 100 mM KH2PO4 buffer (pH 7) containing 0.005% Tween-20 and 10 μM ZnSO4. In the assay, the final concentration of enzyme was 1 pM, 2 pM and 30 pM for NDM-1, IMP-1 and VIM-1, respectively, and the final concentration of CCF2-FA was 1.25 μM. The test inhibitor was dissolved in DMSO and diluted 1:50 in the assay, resulting in a final concentration range of 20 μM to 0.00063 μM. In a 384-well microplate, the test inhibitor was incubated with the metallo-β-lactamase enzyme and the substrate for 2 hours at 25° C. Fluorescence at 460 nm following excitation at 405 nm was measured. The IC50 value was determined from semi-logarithmic plots of enzyme inhibition versus inhibitor concentration, with a curve generated using a 4-parameter fit.

For another assay, the target named is VIM-1 (Pseudomonas aeruginosa, UniProt A0A0F7KYQ8). Described as above. The class given is biochemical. The conditions noted are these: enzyme 30 pM, CCF2-FA 1.25 μM, 2 hours at 25° C.; read-out: VIM1 IC50. The protocol:
as §1, §2

Another assay has as its target IMP-1 (Serratia marcescens, UniProt P52699). The assay is described as above. The class given is biochemical. As to conditions: enzyme 2 pM, CCF2-FA 1.25 μM, 2 hours at 25° C.; read-out: IMP1 IC50. The protocol:
as §1, §2

Assay [1] relates to Escherichia coli expressing NDM-1 (CLB30016). Kind of assay: Antibiotic potentiation activity: synergistic concentration (MITC95) with imipenem, growth by OD600. The conditions noted are these: 95% inhibition of bacterial growth, strain CLB30016. The class given is cell-based. As to the method: (§3) Antibiotic Potentiation Activity: Determination of Synergistic Concentration
(§4) The bacterial strains tested included the clinical strains Escherichia coli expressing NDM-1 (CLB30005, CLB30016), Serratia marcescens expressing IMP-1 (CL5741), and Klebsiella pneumoniae expressing VIM-1 (IHMA599644). Inhibitor activity was measured in the presence and absence of imipenem or ceftazidime in a 384-well microplate.
(§5) The clinical strains CLB30016, CL5741, and IHMA599644 were grown on trypticase soy agar containing 5% sheep's blood. The clinical strain CLB30005 was grown on Mueller Hinton broth agar containing 8 μg/ml imipenem. The bacteria on agar plates were incubated overnight at 35° C. with ambient humidity (achieved from an open pan of water inside the incubator). The following day, individual colonies from each clinical strain were picked and resuspended in 5 ml saline to attain an OD600 of 0.14, 0.11, 0.15 and 0.13, for CLB30005, CLB30016, CL5741 and IHMA599644, respectively. These were further diluted 1:100 into 1.1×CAMHB and used to inoculate the test wells as described below.
(§6) Imipenem in 10 mM 3-(N-morpholino)propanesulfonic acid (MOPS, pH 7) was stored in single use aliquots at −80° C. Test inhibitors were dissolved in DMSO and diluted 1:50 in the assay, resulting in a final concentration range of 200 μM to 0.195 μM. On the day of the assay, 4 μl of antibiotic was added to 45 μl of bacteria followed by 1 μl of test compound and mixed by pipetting and with an orbital shaker. The concentration of antibiotic used in the assay was 1 μg/ml or 4 μg/ml. Microplates were covered and incubated at 35° C. for 22 hours to 24 hours. At the end of the incubation, absorbance was determined using a spectrophotometer. The synergistic concentration of MBLI was determined by identifying the lowest concentration of test compound in the presence of a given concentration of antibiotic that was required to inhibit 95% of the growth of the bacteria.
(§7) Representative compounds of the present invention display a synergistic effect. For example, representative compounds of EXAMPLES 1-456 were determined to restore susceptibility to imipenem at concentrations of 200 μM or less.

For assay [2], the system named is Serratia marcescens expressing IMP-1 (CL5741). The description is as above. The conditions noted are these: 95% inhibition of bacterial growth, strain CL5741. The class given is cell-based. As to the method:
as §3, §4, §5, §6, §7

Assay [3] has as its system Klebsiella pneumoniae expressing VIM-1 (IHMA599644). Described as above. The conditions noted are these: 95% inhibition of bacterial growth, strain IHMA599644. The class given is cell-based. As to the method: as §3, §4, §5, §6, §7

Chain of IMP-1 (P52699 19-246, looked up, species assumed): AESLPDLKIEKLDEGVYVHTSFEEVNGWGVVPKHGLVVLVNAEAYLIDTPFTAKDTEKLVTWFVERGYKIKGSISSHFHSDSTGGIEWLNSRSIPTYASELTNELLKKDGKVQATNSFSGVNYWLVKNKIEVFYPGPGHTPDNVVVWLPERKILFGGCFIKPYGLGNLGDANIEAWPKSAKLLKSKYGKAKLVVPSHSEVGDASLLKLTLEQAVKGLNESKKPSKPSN
Chain of NDM-1 (C7C422 29-270, looked up, species assumed): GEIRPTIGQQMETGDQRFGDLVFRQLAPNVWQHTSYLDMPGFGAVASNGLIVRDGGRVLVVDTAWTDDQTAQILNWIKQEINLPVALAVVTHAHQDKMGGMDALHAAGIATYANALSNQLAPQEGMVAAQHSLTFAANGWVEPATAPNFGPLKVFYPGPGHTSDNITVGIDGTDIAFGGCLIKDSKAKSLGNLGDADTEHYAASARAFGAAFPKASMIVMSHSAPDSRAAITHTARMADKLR

A word on the IC50: it is the midpoint of a concentration-inhibition curve. In the case of `CCC[C@H](C(=O)O)[C@H](Cc1ccc(CN)cc1)c1nnn[nH]1` [Example 54, (S)-2-((S)-2-(4-(aminomethyl)phenyl)-1-(1H-tetrazol-5-yl)ethyl)pentanoic acid], the IC50 at NDM-1 came out at 1600 nM; at VIM-1 it was 40 nM; on IMP-1 it was 13000 nM. Besides, the “NDM1 EC30016 MITC95” value in assay [1] stood at 18.8 µM. Further, the “IMP1 SM5741 MITC95” value in assay [2] was determined as 75 µM. In addition, the “VIM1 KP599644 MITC95” value in assay [3] was 12.5 µM.

As for `CCC[C@H](C(=O)O)[C@H](Cc1ccc(CN2CCNCC2)cc1)c1nnn[nH]1` [Example 55, (S)-2-((S)-2-(4-(piperazin-1-ylmethyl)phenyl)-1-(1H-tetrazol-5-yl)ethyl)pentanoic acid], the half-inhibitory concentration (IC50) at NDM-1 is 120 nM; on VIM-1, 19 nM; at IMP-1, 810 nM. In addition, in assay [1], the “NDM1 EC30016 MITC95” value stood at 6.2 µM. Besides, the “IMP1 SM5741 MITC95” value in assay [2] turned out to be 18.8 µM. Further, in assay [3], the “VIM1 KP599644 MITC95” value was 25 µM.

With `CC(C)C[C@H](C(=O)O)[C@H](Cc1ccc(CN)c(F)c1)c1nnn[nH]1` [Example 56, (S)-2-((S)-2-(4-(aminomethyl)-3-fluorophenyl)-1-(1H-tetrazol-5-yl)ethyl)-4-methylpentanoic acid], the IC50 on NDM-1 is 520 nM; at VIM-1, 10 nM; at IMP-1, 1700 nM. Moreover, the “NDM1 EC30016 MITC95” value in assay [1] amounted to 9.4 µM. Further, in assay [2], the “IMP1 SM5741 MITC95” value worked out at 47 µM. Besides, the “VIM1 KP599644 MITC95” value in assay [3] stood at 18.8 µM.

On to `CCC[C@@H](C(=O)O)[C@H](Cc1ccc(-c2ccc(N3CCNCC3)nc2)cc1)c1nnn[nH]1` [Example 57, (2R)-2-[(1S)-2-[4-(6-piperazin-1-ylpyridin-3-yl)phenyl]-1-(1H-tetrazol-5-yl)ethyl]pentanoic acid], for which the IC50 at NDM-1 was found to be 650 nM; at VIM-1, 170 nM; on IMP-1, 2800 nM. Besides, the “NDM1 EC30016 MITC95” value in assay [1] came to 200 µM. For the same compound, the “IMP1 SM5741 MITC95” value in assay [2] amounted to 150 µM. The “VIM1 KP599644 MITC95” value in assay [3] is more than 200 µM.

With `CC(C)[C@H](C(=O)O)[C@H](Cc1ccc(C2=CCNC2)cc1)c1nnn[nH]1` [Example 60, (2S,3S)-4-(4-(2,5-dihydro-1H-pyrrol-3-yl)phenyl)-2-isopropyl-3-(1H-tetrazol-5-yl)butanoic acid], the values for the IC50 on NDM-1, on VIM-1 and at IMP-1 were 56 nM, 1.9 nM and 760 nM, respectively. In addition, the “NDM1 EC30016 MITC95” value in assay [1] is 3.1 µM. The “IMP1 SM5741 MITC95” value in assay [2] stood at 9.4 µM. In addition, the “VIM1 KP599644 MITC95” value in assay [3] amounted to 4.7 µM.

Turning to `O=C(O)[C@@H](C1CCCC1)[C@H](Cc1ccc(C2=CCNC2)cc1)c1nnn[nH]1` [Example 61, (2S,3S)-2-cyclopentyl-4-(4-(2,5-dihydro-1H-pyrrol-3-yl)phenyl)-3-(1H-tetrazol-5-yl)butanoic acid], the IC50 at NDM-1 turned out to be 32 nM; on VIM-1, 1.9 nM; at IMP-1, 150 nM. The “NDM1 EC30016 MITC95” value in assay [1] was 2.3 µM. The “IMP1 SM5741 MITC95” value in assay [2] was determined as 3.9 µM. The “VIM1 KP599644 MITC95” value in assay [3] stood at 6.2 µM.

Regarding `CC(C)[C@H](C(=O)O)[C@H](Cc1ccc(-c2cn[nH]c2)cc1)c1nnn[nH]1` [Example 62, (2S,3S)-4-(4-(1H-pyrazol-4-yl)phenyl)-2-isopropyl-3-(1H-tetrazol-5-yl)butanoic acid], the IC50 on NDM-1 is 6.5 nM; on VIM-1 it was 6.9 nM; on IMP-1 it was 66 nM. The “NDM1 EC30016 MITC95” value in assay [1] is 9.4 µM. Also, the “IMP1 SM5741 MITC95” value in assay [2] was determined as 6.2 µM. Moreover, in assay [3], the “VIM1 KP599644 MITC95” value stood at 18.8 µM.

In the case of `O=C(O)[C@@H](C1CCCC1)[C@H](Cc1ccc(-c2cn[nH]c2)cc1)c1nnn[nH]1` [Example 63, (2S,3S)-4-(4-(1H-pyrazol-4-yl)phenyl)-2-cyclopentyl-3-(1H-tetrazol-5-yl)butanoic acid], the IC50 on NDM-1 is 4.5 nM; at VIM-1 it was 1.1 nM; on IMP-1, 25 nM. Moreover, the “NDM1 EC30016 MITC95” value in assay [1] came to 6.2 µM. Further, the “IMP1 SM5741 MITC95” value in assay [2] was determined as 2.0 µM. For the same compound, the “VIM1 KP599644 MITC95” value in assay [3] amounted to 18.8 µM.

Consider `CC(C)[C@H](C(=O)O)[C@H](Cc1ccc(C2=CCNC2)nc1)c1nnn[nH]1` [Example 64, (2S,3S)-4-(6-(2,5-dihydro-1H-pyrrol-3-yl)pyridin-3-yl)-2-isopropyl-3-(1H-tetrazol-5-yl)butanoic acid], for which the IC50 on NDM-1 is 300 nM; on VIM-1 it was 8.4 nM; on IMP-1, 12000 nM. Also, the “NDM1 EC30016 MITC95” value in assay [1] came out at 6.2 µM. Besides, the “IMP1 SM5741 MITC95” value in assay [2] was 50 µM. In assay [3], the “VIM1 KP599644 MITC95” value was found to be 12.5 µM.

`CC(C)[C@H](C(=O)O)[C@H](Cc1ccc(C2=CCNC2)cn1)c1nnn[nH]1` [Example 65, (2S,3S)-4-(5-(2,5-dihydro-1H-pyrrol-3-yl)pyridin-2-yl)-2-isopropyl-3-(1H-tetrazol-5-yl)butanoic acid]: the values for the IC50 at NDM-1, on VIM-1 and on IMP-1 were 760 nM, 72 nM and more than 20000 nM, respectively. For the same compound, the “NDM1 EC30016 MITC95” value in assay [1] was found to be 3.1 µM. For the same compound, the “IMP1 SM5741 MITC95” value in assay [2] was 200 µM. Also, the “VIM1 KP599644 MITC95” value in assay [3] stood at 12.5 µM.

Take `O=C(O)[C@@H](C1CCCC1)[C@H](Cc1ccc(C2=CCNC2)cn1)c1nnn[nH]1` [Example 66, (2S,3S)-2-cyclopentyl-4-(5-(2,5-dihydro-1H-pyrrol-3-yl)pyridin-2-yl)-3-(1H-tetrazol-5-yl)butanoic acid]: the figures for the IC50 at NDM-1, at VIM-1 and at IMP-1 were 370 nM, 18 nM and 6400 nM, respectively. Besides, in assay [1], the “NDM1 EC30016 MITC95” value is 4.7 µM. Moreover, in assay [2], the “IMP1 SM5741 MITC95” value turned out to be 75 µM. The “VIM1 KP599644 MITC95” value in assay [3] came out at 12.5 µM.

On to `O=C(O)[C@@H](C1CCOC1)[C@H](Cc1ccc(C2=CCNC2)cc1)c1nnn[nH]1` (stereo partly drawn) [Example 67, (2R,3S)-4-(4-(2,5-dihydro-1H-pyrrol-3-yl)phenyl)-2-(tetrahydrofuran-3-yl)-3-(1H-tetrazol-5-yl)butanoic acid], for which the IC50 on NDM-1 came to 890 nM; on VIM-1 it was 25 nM; on IMP-1 it was 12000 nM. Further, in assay [1], the “NDM1 EC30016 MITC95” value was determined as 12.5 µM. In assay [2], the “IMP1 SM5741 MITC95” value was 50 µM. In addition, the “VIM1 KP599644 MITC95” value in assay [3] was 25 µM.

Regarding `Cc1cc(C[C@H](c2nnn[nH]2)[C@@H](C(=O)O)C(C)C)ccc1C1=CCNC1` [Example 68, (2S,3S)-4-(4-(2,5-dihydro-1H-pyrrol-3-yl)-3-methylphenyl)-2-isopropyl-3-(1H-tetrazol-5-yl)butanoic acid], the IC50 on NDM-1 amounted to 24 nM; at VIM-1, 0.79 nM; at IMP-1 it was 1100 nM. Moreover, the “NDM1 EC30016 MITC95” value in assay [1] came to 4.7 µM. Further, in assay [2], the “IMP1 SM5741 MITC95” value amounted to 12.5 µM. In addition, the “VIM1 KP599644 MITC95” value in assay [3] is 6.2 µM.

Take `CC(C)[C@H](C(=O)O)[C@H](Cc1ccc(C2=CCNC2)c(F)c1)c1nnn[nH]1` [Example 69, (2S,3S)-4-(4-(2,5-dihydro-1H-pyrrol-3-yl)-3-fluorophenyl)-2-isopropyl-3-(1H-tetrazol-5-yl)butanoic acid]: the values for the 50% inhibitory concentration (IC50) on NDM-1, at VIM-1 and at IMP-1 were 25 nM, 1.3 nM and 770 nM, respectively. Moreover, the “NDM1 EC30016 MITC95” value in assay [1] is 3.1 µM. For the same compound, the “IMP1 SM5741 MITC95” value in assay [2] came out at 6.2 µM. Also, in assay [3], the “VIM1 KP599644 MITC95” value is 6.2 µM.
